Experimental data taken from ChEMBL document CHEMBL4014275, “Discovery of benzofuran-3(2H)-one derivatives as novel DRAK2 inhibitors that protect islet β-cells from apoptosis” (Eur J Med Chem, 2017).

How the values were obtained:
[1] = target: T1, Serine/threonine-protein kinase 17B (Homo sapiens, UniProt O94768); experiment: Inhibition of recombinant GST-tagged DRAK2 (unknown origin) autophosphorylation after 2 hrs by ADP-glo assay
T1 sequence (O94768 whole entry): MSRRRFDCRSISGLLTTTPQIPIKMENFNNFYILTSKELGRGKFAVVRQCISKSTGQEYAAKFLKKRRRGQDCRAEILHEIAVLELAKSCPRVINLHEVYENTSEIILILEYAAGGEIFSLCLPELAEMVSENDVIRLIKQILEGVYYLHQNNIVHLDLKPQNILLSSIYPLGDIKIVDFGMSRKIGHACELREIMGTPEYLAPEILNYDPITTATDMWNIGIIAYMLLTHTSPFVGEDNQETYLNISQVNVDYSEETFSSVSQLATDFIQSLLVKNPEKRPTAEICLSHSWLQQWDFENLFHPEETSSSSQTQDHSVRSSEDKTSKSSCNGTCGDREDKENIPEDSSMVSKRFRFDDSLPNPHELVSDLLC

[2] = target: Death-associated protein kinase 3 (Homo sapiens, UniProt O43293); experiment: Inhibition of human DAPK3
Death-associated protein kinase 3, sequence (O43293 whole entry): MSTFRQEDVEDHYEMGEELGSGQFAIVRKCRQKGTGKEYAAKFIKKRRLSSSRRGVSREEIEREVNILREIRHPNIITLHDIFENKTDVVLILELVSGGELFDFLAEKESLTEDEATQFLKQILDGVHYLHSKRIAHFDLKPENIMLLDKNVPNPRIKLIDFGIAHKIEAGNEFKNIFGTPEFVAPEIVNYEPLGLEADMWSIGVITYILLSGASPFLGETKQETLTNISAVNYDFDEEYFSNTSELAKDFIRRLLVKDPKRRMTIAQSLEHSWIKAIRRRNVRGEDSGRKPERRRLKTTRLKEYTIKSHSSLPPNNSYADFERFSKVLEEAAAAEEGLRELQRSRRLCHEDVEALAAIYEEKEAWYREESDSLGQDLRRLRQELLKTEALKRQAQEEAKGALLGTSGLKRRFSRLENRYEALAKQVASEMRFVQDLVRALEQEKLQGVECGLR

[3] = target: Death-associated protein kinase 2 (Homo sapiens, UniProt Q9UIK4); experiment: Inhibition of human DAPK2
Death-associated protein kinase 2, sequence (Q9UIK4 whole entry): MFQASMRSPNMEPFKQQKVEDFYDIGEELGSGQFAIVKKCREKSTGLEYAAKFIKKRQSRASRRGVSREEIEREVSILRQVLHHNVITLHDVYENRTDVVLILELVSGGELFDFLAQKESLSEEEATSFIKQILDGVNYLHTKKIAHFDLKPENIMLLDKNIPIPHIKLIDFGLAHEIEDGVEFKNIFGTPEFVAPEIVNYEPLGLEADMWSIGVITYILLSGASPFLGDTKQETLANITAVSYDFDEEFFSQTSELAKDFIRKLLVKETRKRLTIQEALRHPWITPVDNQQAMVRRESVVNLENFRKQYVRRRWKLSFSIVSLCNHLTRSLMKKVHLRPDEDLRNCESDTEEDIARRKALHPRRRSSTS

[4] = target: Cyclin-dependent kinase 5 (Homo sapiens, UniProt Q00535); experiment: Inhibition of human CDK5
Cyclin-dependent kinase 5, sequence (Q00535 whole entry): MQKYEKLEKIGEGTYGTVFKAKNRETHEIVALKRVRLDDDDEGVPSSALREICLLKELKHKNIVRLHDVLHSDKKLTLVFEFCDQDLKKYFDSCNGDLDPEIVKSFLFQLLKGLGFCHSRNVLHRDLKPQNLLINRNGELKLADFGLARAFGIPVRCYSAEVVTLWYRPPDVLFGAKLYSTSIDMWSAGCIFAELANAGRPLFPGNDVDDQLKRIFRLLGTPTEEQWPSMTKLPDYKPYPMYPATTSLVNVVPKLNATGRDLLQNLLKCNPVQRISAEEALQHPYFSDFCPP

[5] = target: Tyrosine-protein kinase Blk (Homo sapiens, UniProt P51451); experiment: Inhibition of human BLK
Tyrosine-protein kinase Blk, sequence (P51451 whole entry): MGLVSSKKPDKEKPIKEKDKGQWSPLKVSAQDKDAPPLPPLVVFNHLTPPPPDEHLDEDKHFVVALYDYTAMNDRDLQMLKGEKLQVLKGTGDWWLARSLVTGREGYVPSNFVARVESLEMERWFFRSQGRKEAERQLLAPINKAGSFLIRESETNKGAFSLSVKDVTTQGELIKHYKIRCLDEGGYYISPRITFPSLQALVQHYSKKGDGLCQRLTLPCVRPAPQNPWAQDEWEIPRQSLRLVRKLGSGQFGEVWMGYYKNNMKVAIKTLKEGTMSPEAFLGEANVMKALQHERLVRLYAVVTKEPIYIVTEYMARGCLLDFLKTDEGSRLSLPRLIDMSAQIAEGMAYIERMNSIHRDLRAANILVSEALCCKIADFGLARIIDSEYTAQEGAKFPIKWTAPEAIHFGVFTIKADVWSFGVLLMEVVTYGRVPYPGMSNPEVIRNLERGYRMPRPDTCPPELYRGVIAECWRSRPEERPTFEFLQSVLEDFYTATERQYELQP

[6] = target: T2, Tyrosine-protein kinase ITK/TSK (Homo sapiens, UniProt Q08881); experiment: Inhibition of human ITK
T2 sequence (Q08881 whole entry): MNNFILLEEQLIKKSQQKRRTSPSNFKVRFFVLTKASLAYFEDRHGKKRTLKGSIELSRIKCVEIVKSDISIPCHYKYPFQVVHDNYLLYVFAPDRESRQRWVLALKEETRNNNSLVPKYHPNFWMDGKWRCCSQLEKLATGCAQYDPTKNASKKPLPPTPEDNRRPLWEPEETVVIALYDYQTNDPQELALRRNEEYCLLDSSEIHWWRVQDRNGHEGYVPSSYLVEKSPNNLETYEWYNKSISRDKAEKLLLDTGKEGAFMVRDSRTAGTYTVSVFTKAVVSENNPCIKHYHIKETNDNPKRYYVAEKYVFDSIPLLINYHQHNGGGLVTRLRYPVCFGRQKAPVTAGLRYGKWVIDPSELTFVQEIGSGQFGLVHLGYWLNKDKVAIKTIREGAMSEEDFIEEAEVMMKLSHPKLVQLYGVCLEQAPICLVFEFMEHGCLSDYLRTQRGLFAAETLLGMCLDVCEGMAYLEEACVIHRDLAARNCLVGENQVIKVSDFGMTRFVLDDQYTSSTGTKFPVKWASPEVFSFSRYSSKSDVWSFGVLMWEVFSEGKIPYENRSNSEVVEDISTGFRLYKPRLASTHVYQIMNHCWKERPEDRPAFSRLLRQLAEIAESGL

Angiopoietin-1 receptor = Angiopoietin-1 receptor (Homo sapiens, UniProt Q02763); experiment: Inhibition of human TEK
Angiopoietin-1 receptor, sequence (Q02763 whole entry): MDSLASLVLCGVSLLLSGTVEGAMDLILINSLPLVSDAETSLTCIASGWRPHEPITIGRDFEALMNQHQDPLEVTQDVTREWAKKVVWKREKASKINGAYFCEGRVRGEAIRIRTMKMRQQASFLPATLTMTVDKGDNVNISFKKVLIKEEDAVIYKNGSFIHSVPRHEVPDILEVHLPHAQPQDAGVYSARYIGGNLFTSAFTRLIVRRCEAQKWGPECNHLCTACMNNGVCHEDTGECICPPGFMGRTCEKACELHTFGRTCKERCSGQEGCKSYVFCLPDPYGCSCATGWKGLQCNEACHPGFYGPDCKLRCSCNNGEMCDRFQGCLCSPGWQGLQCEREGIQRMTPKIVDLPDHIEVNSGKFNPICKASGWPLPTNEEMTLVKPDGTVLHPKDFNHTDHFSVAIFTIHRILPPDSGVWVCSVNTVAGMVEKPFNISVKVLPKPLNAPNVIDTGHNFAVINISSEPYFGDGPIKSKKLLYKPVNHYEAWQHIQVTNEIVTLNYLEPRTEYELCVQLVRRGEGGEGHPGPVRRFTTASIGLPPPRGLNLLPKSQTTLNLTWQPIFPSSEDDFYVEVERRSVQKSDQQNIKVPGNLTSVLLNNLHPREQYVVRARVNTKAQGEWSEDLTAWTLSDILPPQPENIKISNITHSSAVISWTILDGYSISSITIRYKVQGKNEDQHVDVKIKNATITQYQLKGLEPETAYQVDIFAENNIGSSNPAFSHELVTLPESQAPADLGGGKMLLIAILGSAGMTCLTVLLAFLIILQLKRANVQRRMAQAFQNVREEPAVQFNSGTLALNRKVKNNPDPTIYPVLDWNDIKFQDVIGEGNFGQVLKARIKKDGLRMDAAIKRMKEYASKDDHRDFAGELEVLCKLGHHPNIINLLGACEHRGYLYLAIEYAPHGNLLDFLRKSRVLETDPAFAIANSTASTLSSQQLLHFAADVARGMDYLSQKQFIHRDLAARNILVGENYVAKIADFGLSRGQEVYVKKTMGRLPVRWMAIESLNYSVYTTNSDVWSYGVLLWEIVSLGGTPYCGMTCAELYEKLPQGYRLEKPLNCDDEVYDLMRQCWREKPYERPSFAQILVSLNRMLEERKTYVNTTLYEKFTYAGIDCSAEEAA

[7] = target: Glycogen synthase kinase-3 beta (Homo sapiens, UniProt P49841); experiment: Inhibition of human GSK3beta
Glycogen synthase kinase-3 beta, sequence (P49841 whole entry): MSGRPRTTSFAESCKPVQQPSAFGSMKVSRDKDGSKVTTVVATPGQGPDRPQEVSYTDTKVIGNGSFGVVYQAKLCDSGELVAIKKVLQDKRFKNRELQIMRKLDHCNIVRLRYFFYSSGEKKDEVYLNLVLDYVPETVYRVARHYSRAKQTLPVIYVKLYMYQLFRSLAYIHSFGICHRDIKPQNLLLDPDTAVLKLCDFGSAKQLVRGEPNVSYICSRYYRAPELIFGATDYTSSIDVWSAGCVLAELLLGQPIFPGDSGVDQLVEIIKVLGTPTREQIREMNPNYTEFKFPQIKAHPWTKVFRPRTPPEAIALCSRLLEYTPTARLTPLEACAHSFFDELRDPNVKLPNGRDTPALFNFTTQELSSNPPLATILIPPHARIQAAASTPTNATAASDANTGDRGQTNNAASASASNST

[8] = target: Tyrosine-protein kinase BTK (Homo sapiens, UniProt Q06187); experiment: Inhibition of human BTK
Tyrosine-protein kinase BTK, sequence (Q06187 whole entry): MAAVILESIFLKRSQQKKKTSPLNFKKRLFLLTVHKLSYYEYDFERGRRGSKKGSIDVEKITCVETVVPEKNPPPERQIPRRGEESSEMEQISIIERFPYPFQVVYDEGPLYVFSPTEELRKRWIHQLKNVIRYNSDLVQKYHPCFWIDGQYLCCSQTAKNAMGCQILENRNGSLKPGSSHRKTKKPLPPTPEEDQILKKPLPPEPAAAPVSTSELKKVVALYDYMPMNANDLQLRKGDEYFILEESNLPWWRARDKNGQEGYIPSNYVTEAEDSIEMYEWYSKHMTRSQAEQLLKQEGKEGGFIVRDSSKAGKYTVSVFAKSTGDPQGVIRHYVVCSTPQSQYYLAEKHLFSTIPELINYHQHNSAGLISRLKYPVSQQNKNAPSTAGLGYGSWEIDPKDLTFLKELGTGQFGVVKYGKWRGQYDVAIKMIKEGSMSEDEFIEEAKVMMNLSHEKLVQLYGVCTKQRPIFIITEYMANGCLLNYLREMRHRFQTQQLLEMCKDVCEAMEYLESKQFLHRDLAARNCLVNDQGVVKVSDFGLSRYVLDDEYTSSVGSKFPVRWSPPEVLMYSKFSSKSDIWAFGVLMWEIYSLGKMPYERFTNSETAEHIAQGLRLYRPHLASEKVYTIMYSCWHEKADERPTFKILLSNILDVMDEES

Aurora kinase A = target: T3, Aurora kinase A (Homo sapiens, UniProt O14965); experiment: Inhibition of human AURORA-A
T3 sequence (O14965 whole entry): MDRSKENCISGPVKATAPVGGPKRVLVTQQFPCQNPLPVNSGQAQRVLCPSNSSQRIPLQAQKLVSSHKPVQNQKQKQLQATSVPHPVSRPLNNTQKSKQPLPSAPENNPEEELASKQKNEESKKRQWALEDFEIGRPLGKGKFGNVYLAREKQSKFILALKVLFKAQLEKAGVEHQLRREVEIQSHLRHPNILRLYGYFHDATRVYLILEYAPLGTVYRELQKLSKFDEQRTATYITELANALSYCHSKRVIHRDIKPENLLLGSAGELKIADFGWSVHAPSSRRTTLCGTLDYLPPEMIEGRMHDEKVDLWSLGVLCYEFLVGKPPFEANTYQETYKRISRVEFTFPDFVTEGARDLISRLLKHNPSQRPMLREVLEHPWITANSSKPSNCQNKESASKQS

[9] = target: T4, Serine/threonine-protein kinase 17A (Homo sapiens, UniProt Q9UEE5); experiment: Inhibition of human DRAK1
T4 sequence (Q9UEE5 whole entry): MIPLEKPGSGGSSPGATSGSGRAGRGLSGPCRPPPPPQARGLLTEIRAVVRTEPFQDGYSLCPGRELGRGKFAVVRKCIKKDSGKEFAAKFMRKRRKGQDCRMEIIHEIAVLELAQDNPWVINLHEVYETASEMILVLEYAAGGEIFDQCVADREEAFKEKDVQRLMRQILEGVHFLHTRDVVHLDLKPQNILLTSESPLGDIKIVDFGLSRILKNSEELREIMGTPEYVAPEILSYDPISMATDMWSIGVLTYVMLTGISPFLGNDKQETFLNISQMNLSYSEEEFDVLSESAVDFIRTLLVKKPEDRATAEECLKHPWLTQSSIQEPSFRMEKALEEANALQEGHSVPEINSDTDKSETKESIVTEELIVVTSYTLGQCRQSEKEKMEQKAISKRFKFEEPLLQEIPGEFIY

[10] = target: Cyclin-dependent kinase 6 (Homo sapiens, UniProt Q00534); experiment: Inhibition of human CDK6
Cyclin-dependent kinase 6, sequence (Q00534 whole entry): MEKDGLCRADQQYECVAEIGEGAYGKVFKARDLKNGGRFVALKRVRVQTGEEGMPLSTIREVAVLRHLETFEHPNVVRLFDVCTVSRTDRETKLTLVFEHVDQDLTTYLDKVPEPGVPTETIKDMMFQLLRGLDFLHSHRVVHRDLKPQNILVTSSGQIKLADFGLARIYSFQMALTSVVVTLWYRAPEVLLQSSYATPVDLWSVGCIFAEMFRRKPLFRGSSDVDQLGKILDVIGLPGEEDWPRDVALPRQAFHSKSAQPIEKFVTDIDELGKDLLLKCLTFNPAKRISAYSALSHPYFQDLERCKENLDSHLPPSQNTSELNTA

[11] = target: Cyclin-dependent kinase 9 (Homo sapiens, UniProt P50750); experiment: Inhibition of human CDK9
Cyclin-dependent kinase 9, sequence (P50750 whole entry): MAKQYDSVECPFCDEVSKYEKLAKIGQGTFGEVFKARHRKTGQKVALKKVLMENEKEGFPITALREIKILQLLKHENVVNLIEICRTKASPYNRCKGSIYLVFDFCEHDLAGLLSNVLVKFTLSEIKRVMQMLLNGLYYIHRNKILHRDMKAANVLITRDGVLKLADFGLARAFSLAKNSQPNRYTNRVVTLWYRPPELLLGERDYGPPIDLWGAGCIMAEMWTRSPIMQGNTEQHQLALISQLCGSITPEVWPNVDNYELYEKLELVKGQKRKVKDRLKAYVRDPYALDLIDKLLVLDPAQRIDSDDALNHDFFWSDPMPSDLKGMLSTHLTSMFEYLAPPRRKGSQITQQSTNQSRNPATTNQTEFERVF

[12] = target: Cyclin-dependent kinase 4 (Homo sapiens, UniProt P11802); experiment: Inhibition of human CDK4
Cyclin-dependent kinase 4, sequence (P11802 whole entry): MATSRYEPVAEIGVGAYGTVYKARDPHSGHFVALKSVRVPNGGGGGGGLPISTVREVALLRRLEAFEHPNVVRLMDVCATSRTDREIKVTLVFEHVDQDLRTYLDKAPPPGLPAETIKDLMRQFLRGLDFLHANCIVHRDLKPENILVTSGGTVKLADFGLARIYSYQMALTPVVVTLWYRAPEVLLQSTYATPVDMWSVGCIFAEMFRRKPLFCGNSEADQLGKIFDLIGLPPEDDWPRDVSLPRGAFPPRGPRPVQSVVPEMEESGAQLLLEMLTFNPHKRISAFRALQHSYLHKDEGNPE

[13] = target: Tyrosine-protein kinase SYK (Homo sapiens, UniProt P43405); experiment: Inhibition of human SYK
[14] = target: Tyrosine-protein kinase JAK2 (Homo sapiens, UniProt O60674); experiment: Inhibition of human JAK2
[15] = target: T5, Tyrosine-protein kinase JAK3 (Homo sapiens, UniProt P52333); experiment: Inhibition of human JAK3
T5 sequence (P52333 whole entry): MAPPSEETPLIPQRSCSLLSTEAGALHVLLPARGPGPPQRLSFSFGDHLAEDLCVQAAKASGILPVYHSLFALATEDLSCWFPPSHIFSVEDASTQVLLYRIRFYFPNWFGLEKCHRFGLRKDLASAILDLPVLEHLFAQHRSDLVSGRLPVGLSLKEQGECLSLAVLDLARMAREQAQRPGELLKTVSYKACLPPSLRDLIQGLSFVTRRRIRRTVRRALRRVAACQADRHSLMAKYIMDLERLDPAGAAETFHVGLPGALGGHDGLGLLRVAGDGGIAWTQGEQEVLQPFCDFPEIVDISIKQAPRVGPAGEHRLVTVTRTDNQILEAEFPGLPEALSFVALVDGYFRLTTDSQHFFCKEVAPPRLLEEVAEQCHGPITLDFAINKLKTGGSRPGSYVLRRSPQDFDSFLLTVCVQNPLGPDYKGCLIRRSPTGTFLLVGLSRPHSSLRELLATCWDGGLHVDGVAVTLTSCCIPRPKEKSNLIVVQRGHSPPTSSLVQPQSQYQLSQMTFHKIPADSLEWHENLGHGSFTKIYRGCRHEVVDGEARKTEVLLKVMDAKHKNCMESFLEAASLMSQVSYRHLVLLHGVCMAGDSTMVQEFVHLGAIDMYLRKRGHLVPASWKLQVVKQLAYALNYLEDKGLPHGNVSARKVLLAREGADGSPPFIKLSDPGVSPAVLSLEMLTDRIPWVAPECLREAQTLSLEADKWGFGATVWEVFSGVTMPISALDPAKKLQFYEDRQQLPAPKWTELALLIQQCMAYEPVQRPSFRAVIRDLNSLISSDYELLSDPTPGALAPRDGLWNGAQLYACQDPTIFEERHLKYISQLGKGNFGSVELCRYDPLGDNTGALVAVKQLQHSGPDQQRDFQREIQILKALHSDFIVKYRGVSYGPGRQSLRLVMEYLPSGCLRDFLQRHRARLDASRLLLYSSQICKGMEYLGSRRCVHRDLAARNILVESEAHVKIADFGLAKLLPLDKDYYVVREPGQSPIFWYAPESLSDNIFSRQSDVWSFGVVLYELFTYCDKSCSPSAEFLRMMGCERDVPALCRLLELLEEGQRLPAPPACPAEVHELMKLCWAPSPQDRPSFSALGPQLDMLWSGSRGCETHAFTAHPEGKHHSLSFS

[16] = target: Death-associated protein kinase 1 (Homo sapiens, UniProt P53355); experiment: Inhibition of human DAPK1

O=C1/C(=C/c2ccc(O)c(O)c2)Cc2ccccc21
IC50 [1]: 13.3 µM

O=C1/C(=C/c2ccc(O)c(O)c2)Oc2ccccc21
IC50 [1]: 3.08 to 3.15 µM

O=C1/C(=C/c2ccc(O)cc2)Oc2ccccc21
IC50 [1]: 53 µM

O=C1/C(=C/c2ccc(F)cc2)Oc2ccccc21
IC50 [1]: 40.5 µM

COc1cc(/C=C2\Oc3ccccc3C2=O)ccc1O
IC50 [1]: 3.11 µM

CCOc1cc(/C=C2\Oc3ccccc3C2=O)ccc1O
IC50 [1]: 3.24 µM

COc1ccc(-c2cnc3scc(NC(=O)C4CCCCC4)c3c2)cc1OC
IC50 [2]: 39.8 µM | IC50 [3]: 55 µM | IC50 [1]: 1.31 µM

O=C1/C(=C/c2ccc(CO)cc2)Oc2ccccc21
IC50 [1]: 11.1 µM

O=C1/C(=C/c2ccco2)Oc2ccccc21
IC50 [1]: 64 µM

O=C1c2ccccc2OC1Cc1ccc(O)c(O)c1 (stereo not given)
IC50 [1]: 27.8 µM

CCOc1cc(/C=C2\Oc3ccc(Br)cc3C2=O)ccc1O
IC50 [1]: 28.1 µM

COc1ccc(/C=C2\Oc3ccccc3C2=O)cc1O
IC50 [1]: 12.1 µM

CCOc1cc(/C=C2\Oc3ccc(F)cc3C2=O)ccc1O
IC50 [1]: 1.05 µM

O=C1/C(=C/c2cccnc2)Oc2ccccc21
IC50 [1]: 39.4 µM

O=C1/C(=C/c2ccc(O)c(O)c2)Oc2ccc(O)cc21
IC50 [1]: 0.99 µM

CCCCOc1ccc2c(c1)C(=O)/C(=C/c1ccc(O)c(OCC)c1)O2
IC50 [1]: 3.66 µM

CC(C)Oc1cc(/C=C2\Oc3ccccc3C2=O)ccc1O
IC50 [1]: 17.4 µM

CCOc1cc(/C=C2\Oc3c(OC)cccc3C2=O)ccc1O
IC50 [1]: 1.29 µM

CCOc1cc(/C=C2\Oc3ccc(I)cc3C2=O)ccc1O
IC50 [1]: 42.5 µM

CCOc1ccc2c(c1)C(=O)/C(=C/c1ccc(O)c(OCC)c1)O2
IC50 [1]: 0.41 µM

CCOc1cc(/C=C2\Oc3cc(Cl)ccc3C2=O)ccc1O
IC50 [1]: 40.5 µM

CCOc1cc(/C=C2\Oc3ccc(Cl)cc3C2=O)ccc1O
IC50 [1]: 13.7 µM

COc1ccc2c(c1)C(=O)/C(=C/c1ccc(O)c(O)c1)O2
IC50 [4]: 8.84 µM | IC50 [5]: 3.05 µM | IC50 [6]: 2.19 µM | IC50 [2]: 12.1 µM | IC50 (Angiopoietin-1 receptor): 0.51 µM | IC50 [3]: 6.34 µM | IC50 [7]: 5.3 µM | IC50 [8]: 5.03 µM | IC50 (Aurora kinase A): 1.05 µM | IC50 [9]: 5.81 µM | IC50 [1]: 0.25 µM

COc1cc(/C=C2\Oc3ccccc3C2=O)cc(OC)c1O
IC50 [1]: 6.65 µM

CCOc1cc(/C=C2\Oc3cccc(OC)c3C2=O)ccc1O
IC50 [1]: 7.26 µM

CCOc1cc(/C=C2\Oc3ccc(OC(C)=O)cc3C2=O)ccc1O
IC50 [1]: 0.69 µM

CCOc1cc(/C=C2\Oc3cc(F)ccc3C2=O)ccc1O
IC50 [1]: 60.4 µM

CCCCOc1cc(/C=C2\Oc3ccccc3C2=O)ccc1O
IC50 [1]: 29.1 µM

CCOc1cc(/C=C2\Oc3cc(OC)ccc3C2=O)ccc1O
IC50 [1]: 2.44 µM

CCCOc1cc(/C=C2\Oc3ccccc3C2=O)ccc1O
IC50 [1]: 5.37 µM

O=C(c1ccc(O)c(O)c1)c1cc2ccccc2o1
IC50 [1]: 22.9 µM

CCOc1cc(/C=C2\Oc3ccc(C)cc3C2=O)ccc1O
IC50 [1]: 0.96 µM

CCOc1cc(/C=C2\Oc3ccc(N)cc3C2=O)ccc1O
IC50 [1]: 7.16 µM

COc1ccc(/C=C2\Oc3ccccc3C2=O)cc1OC [3',4'-DIMETHOXY-AURONE]
IC50 [1]: 21.4 µM

O=C1/C(=C/c2ccccc2)Oc2ccccc21 [(Z)-AURONE]
IC50 [1]: 24.6 µM

O=C1/C(=C/c2ccc(O)c(O)c2)Oc2cc(O)ccc21 [SULFURETIN]
IC50 [10]: 2.44 µM | IC50 [4]: 1.5 µM | IC50 [5]: 2.88 µM | IC50 [6]: 2.02 µM | IC50 [11]: 2.16 µM | IC50 [12]: 2.82 µM | IC50 [2]: 2.33 µM | IC50 [13]: 4.63 µM | IC50 (Angiopoietin-1 receptor): 0.95 µM | IC50 [3]: 3.07 µM | IC50 [7]: 1.95 µM | IC50 [14]: 9.32 µM | IC50 [15]: 4.26 µM | IC50 [8]: 6.02 µM | IC50 (Aurora kinase A): 0.85 µM | IC50 [16]: 13.2 µM | IC50 [9]: 5.85 µM | IC50 [1]: 1.02 µM
